The results in this text go back to US20120083472A1, “PHARMACEUTICAL COMPOSITION FOR PROMOTING THE HEALING OF WOUNDS AND CONTAINING LYSOPHOSPHATIDIC ACID AND AN ADENYLYL CYCLASE INHIBITOR AS ACTIVE INGREDIENTS” (SNU R&DB FOUNDATION, priority 2009, published 2012).

Holding throughout (format): cell-based, human
Test [1] deals with young and senescent fibroblasts (HDFs). The experiment in a line: In vitro wound healing assay (cell migration into acellular area). The method, then: Sub-cultured young (A, C) and senescent cells (B, D) were serum-starved for 2 days and treated with ACI or dbcAMP (1 mM) for 2 hr at 37° C. An area was denuded by a yellow tip and the cells were then treated with LPA (30 μM) and incubated at 37° C. Photographs were taken at 6 hrs, 12 hrs, 18 hrs, 24 hrs, 30 hrs, 36 hrs, 42 hrs, 60 hrs, and 72 hrs, and the number of cells migrated into the acellular area was counted and the average values were plotted in A and B. The data at 72 hrs were replotted in a bar graph to show the significant changes induced by treating cells with either LPA or ACI, or both (C and D). The results shown represent the means±standard deviation of a representative experiment. Cell migration from each group (p<0.001) was compared to the control value the migration was read as having a significance.
LPA-induced cell migration was assessed by the ability of the cells to move into an acellular area (Shiraha et al., 2000). Cells were plated on a 10-cm plastic dish and grown to 70-80% confluence in the culture media with 10% FBS. After a 2-day quiescence in serum free media with 0.1% BSA, cells were pretreated with vehicle, ACI (300 μM), or dbcAMP (1 mM) for 2 hrs at 37° C. An area was denuded by a tip and the cells were then incubated at 37° C. without or with LPA (30 μM). Photographs were taken at 6 hrs, 12 hrs, 18 hrs, 24 hrs, 30 hrs, 36 hrs, 42 hrs, 60 hrs, and 72 hrs, and the number of cells migrating to the acellular area was counted.

Test [2] has as its system young and senescent fibroblasts, HUVEC, skin keratinocytes. The experiment in a line: DNA synthesis ([3H]-thymidine incorporation). The settings on record: senescent cells; 1 mM dbcAMP or 300 μM ACI 2 hrs, then 30 μM LPA (FIG. 4A). On the procedure: Sub-cultured young (PD 25) and senescent (PD 73) cells (A), skin fibroblasts from young and elderly donors (B), HUVEC (C) and skin keratinocytes (D) were serum-starved for 2 days and treated with 1 mM of dibutyryl-cAMP (dbcAMP), or 300 […]μM of ACI (SQ22536) for 2 hrs. Cells were then treated with 30 μM of LPA in the presence of 0.5 μCi/ml of [^3H]-radioactive isotope. The radioactivity incorporated into the DNA was counted and fold increase of radioactive isotope incorporation was calculated and plotted. The results shown represent the means±standard deviation of a representative experiment. Human umbilical vein endothelial cells (HUVEC) were isolated from endothelial cells of umbilical cords as described by Whang et al (Whang et al., 2005). Foreskin human fibroblasts and keratinocytes were isolated from newborn foreskins as described by Boyce and Ham (Boyce and Ham, 1983). Patient consents were obtained from all donors and the use of tissue samples was approved by the ethics committee of the Seoul National University. The obtained and isolated fibroblasts and HUVEC were maintained in DMEM containing 10% fetal bovine serum (FBS) and antibiotics, and keratinotyes were in keratinocyte growth medium (KGM) containing antibiotics. Cells from the early stage of culture were cultured to obtain aged cells, which were used in experiments (population doubling -PD- of less than 25 vs PD 65-70 in fibroblasts, PD less than 5 vs PD 10-12 in case of HUVEC). Senescent cells were characterized by morphological changes, enhanced […]β-galactosidase activity and a reduced rate of proliferation (Yeo et al., 2000). Cells were grown for 2 days to 60-70% sub-confluency in the culture medium after treatment with LPA or ACI, and then serum-starved to quiescence by incubating them with either serum free DMEM containing 0.1% BSA (fibroblasts or HUVEC) or KBM (keratinocytes) for 2 days. […] Radioactivity in the neutralized lysates was counted in a liquid scintillation cocktail. The measured radioactivity as such was compared to that of control to find the synthesis degree of […].
In general terms: Uptake of a labelled nucleoside into DNA is a usual measure of proliferation.

The test system is the same in test [3]. Put plainly: Cell growth / proliferation (cell number count). The settings on record: both young and senescent cells, 1 mM dbcAMP after LPA, 4 days (FIG. 3). The method, then: Sub-cultured young (PD 25, A) and senescent (PD 73, B) fibroblasts were serum-starved for 2 days and treated with LPA, 1 mM of dbcAMP (+dbcAMP), or 300 μM of ACI SQ22536 (+ACI) for 4 days. The number of cells was counted. The results shown represent the means±standard deviation of a representative experiment.
Sub-cultured young (PD 25) and senescent (PD 73) cells (A), fibroblasts from young and elderly donors (B), HUVEC (C) and skin keratinocytes (D) were serum-starved for 2 days and treated with LPA, and then treated with 1 mM of dibutyryl-cAMP, or 300 μM of ACI (SQ22536) for 4 days. The number of cells was counted. The results shown represent the means±standard deviation of a representative experiment.
Human umbilical vein endothelial cells (HUVEC) were isolated from endothelial cells of umbilical cords as described by Whang et al (Whang et al., 2005). Foreskin human fibroblasts and keratinocytes were isolated from newborn foreskins as described by Boyce and Ham (Boyce and Ham, 1983). Patient consents were obtained from all donors and the use of tissue samples was approved by the ethics committee of the Seoul National University. The obtained and isolated fibroblasts and HUVEC were maintained in DMEM containing 10% fetal bovine serum (FBS) and antibiotics, and keratinotyes were in keratinocyte growth medium (KGM) containing antibiotics. Cells from the early stage of culture were cultured to obtain aged cells, which were used in experiments (population doubling -PD- of less than 25 vs PD 65-70 in fibroblasts, PD less than 5 vs PD 10-12 in case of HUVEC). Senescent cells were characterized by morphological changes, enhanced […]β-galactosidase activity and a reduced rate of proliferation (Yeo et al., 2000). Cells were grown for 2 days to 60-70% sub-confluency in the culture medium after treatment with LPA or ACI, and then serum-starved to quiescence by incubating them with either serum free DMEM containing 0.1% BSA (fibroblasts or HUVEC) or KBM (keratinocytes) for 2 days.

As for `CCCC(=O)Nc1ncnc2c1ncn2[C@@H]1O[C@@H]2COP(=O)(O)O[C@H]2[C@H]1OC(=O)CCC` [dbcAMP, dibutyryl cAMP], the LPA-induced cell migration entry in test [1] (dbcAMP 1 mM with LPA 30 μM) is on record as “reduced”. Further, the basal cell migration entry in test [1] (young and senescent cells, 1 mM dbcAMP) is on record as “did not significantly affect”. Moreover, in test [2], the “basal and LPA-stimulated DNA synthesis in senescent cells” value is listed as “decreased”. In addition, the LPA-induced proliferation entry in test [3] is on record as “decreased”.
